Measurements as given in patent US20260306460A1, “COMPOSITION FOR REMOVING AND INHIBITING SENESCENT CELLS, AND USES THEREOF” (LIFECEUTIX CO., LTD., priority 2023, published 2026).

Assays:
[1] = test system: carbon tetrachloride-induced liver fibrosis mice; test: Carbon tetrachloride-induced liver fibrosis mice, Example 31, Table 57; type: in vivo, mouse; details: CCl4-induced liver fibrosis mice, untreated = 100%
Procedure, shortened: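 Mice with induced hepatic fibrosis received either the test compound or, as controls, an equal volume of vehicle solution alone. Once dosing ended, liver tissue was harvested and total RNA was isolated. cDNA was synthesized from this RNA, and quantitative RT-PCR was run on it to measure hepatic mRNA levels of the fibrosis- and senescence-related genes.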

[2] = test system: obesity-induced aged C57BL6J mice; test: Anxiety, depression, lethargy (open field test) in obesity-aged mice, Example 23-4, Table 44; type: in vivo, mouse; details: obesity-aged mice
Protocol: 15-week-old male C57BL6J mice (The Jackson Laboratory) were induced to obesity by a high-fat diet using the same method as in Example 9-1 WO2023-085787 A1. After acclimation to the experimental environment for one week, the mice were randomly assigned to experimental and control groups. […] LX-3002 was mixed in distilled water with 4% DMSO, 30% PEG300, and 5% Tween80 and administered orally at a concentration of 10 mg/kg daily for 21 days. LX-5701 was mixed in PBS and administered orally at a concentration of 360 mg/kg daily for 21 days. LX-6807 was mixed in saline and administered intraperitoneally at a concentration of 1 mg/kg daily for 21 days. The control group received only the solution in the same volume. After the end of drug administration, the methods described in each example below were performed.
It was determined that anxiety and depression caused by obesity are not causally related to increased body weight, but rather are caused by the accumulation of senescent cells. Accordingly, an activity assessment (open field test) was performed using the same method as in Example 7-7 of WO2023-085787 A1 to analyze lethargy caused by anxiety and depression caused by obesity in mice. The table below quantitatively represents activity, a criterion for assessing lethargy due to anxiety and depression, under conditions in which aging was induced by obesity and the test compound was not administered or was administered. The activity assessment after obesity-induced aging was calculated as 100% and compared with the activity assessment after test compound treatment.

[3] = test system: naturally aged mice; test: Anti-aging evaluation in naturally aged mice, Example 31, Table 55; type: in vivo, mouse; details: for Femur Ctsk mRNA / Kidney Agtr1a mRNA / Liver IL6 mRNA / Liver MMP3 mRNA / Liver p16 mRNA / Open Field Test Time in Center: untreated = 100%; for Heart Sur2a mRNA / Joint Col2a1 mRNA / Skin Col1a1 mRNA / Skin SDF1 mRNA: untreated = 1.0; for Muscle Mass: untreated 0.64 g; for Fat Mass: untreated 0.82 g; for Cataract incidence: untreated 83%;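 as to all read-outs here: Vehicle-dosed control mice received solution alone at matching volume, values compare test-compound-treated aged mice against that control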
[4] = test system: senescent A549 cells; test: Viability of senescent A549 cells (CellTiter-Glo), Example 18, Table 15; details: for Survival (%): doxorubicin-induced senescent A549 cells, 0 μM = 100%
Protocol: Senescence-induced cancer cells treated with doxorubicin were treated with the test compound at designated concentrations, and cell viability was measured using the CellTiter-Glo Luminescent Cell Viability Assay (Promega).

[5] = test system: naturally aged C57BL6J mice; test: Geriatric depression and anxiety in aged mice, Example 21-8; type: in vivo, mouse; details: aged mice
From the text: The amount of senescent-associated secretory factor (SASP) in serum and tissues collected from mice of Examples 21-5 and 21-6 was reduced by treatment with LX-5701, LX-2101, or LX-2102. It was confirmed that removing senescent cells, which increase with aging in mice, and effectively reducing the amount of senescent-associated secretory factor (SASP) can improve symptoms of geriatric depression and anxiety.

[6] = test system: senescent cells; test: Viability of senescent cells (CellTiter-Glo), Example 17, Table 13; details: for Survival (%): doxorubicin-induced senescent cells, 0 μM = 100
Protocol: Cells induced to undergo senescence by doxorubicin treatment were treated with test compound at designated concentrations and measured using the CellTiter-Glo Luminescent Cell Viability Assay (Promega).

[7] = test system: bleomycin-induced pulmonary fibrosis mice; test: Bleomycin-induced pulmonary fibrosis mice, Example 31, Table 56; type: in vivo, mouse; details: untreated = 100%
Procedure, shortened: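 Mice with bleomycin-induced pulmonary fibrosis, untreated or given test compound, with vehicle-only controls. Lung tissue collected for RNA extraction and qRT-PCR analysis.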

[8] = test system: HMGN1 secreted from senescent A549 cells; test: HMGN1 secretion (ELISA) from senescent A549 cells, Example 18, Table 14; type: cell-based, human; details: doxorubicin-senescent A549, without test compound (DMSO) = 100%; 30 μM (LX-5211, LX-5433, LX-6530, LX-6800, LX-9105, LX-9118, LX-9131, LX-9136, LX-9302, LX-9321, LX-9565, LX-9602 at 90 μM; LX-9336 at 2.4 mM)
Protocol: On the other hand, in cancer cells treated with doxorubicin, where senescence was induced, the amount of HMGN1 measured under conditions where cells were not treated with the test compound was calculated as 100%, and the amount of HMGN1 was measured under conditions where the senescent cancer cells were treated with the test compound.

[9] = Homo sapiens, A549, read-out: Survival (%)
[10] = Homo sapiens, read-out: Survival (%)

Which “Liver p16 mRNA” value [1] does the source give for `Nc1ccc(O)c(C(=O)O)c1` [LX-9118, 5-aminosalicylic acid] here?
Its value is 69 (±2.4) %.

What about the “Col1a1 mRNA” value [1] of the same molecule?
Its value is 64 (±2.0) %.

And the geriatric depression [2]?
Its geriatric depression is “similarly improving geriatric depression”.

What about the “Femur Ctsk mRNA” value [3] of the same molecule?
Its value is 75%.

And the “Heart Sur2a mRNA” value [3]?
Its value is 1.7 fold.

And the “Joint Col2a1 mRNA” value [3]?
Its value is 1.8 fold.

And the “Kidney Agtr1a mRNA” value [3]?
Its value is 71%.

And the “Liver IL6 mRNA” value [3]?
Its value is 62%.

And the “Liver MMP3 mRNA” value [3]?
Its value is 83%.

And the “Liver p16 mRNA” value [3]?
Its value is 74%.

And the “Open Field Test Time in Center” value [3]?
Its value is 199%.

And the “Skin Col1a1 mRNA” value [3]?
The value was 1.9 Fold.

What about the “Skin SDF1 mRNA” value [3] of the same molecule?
Its value is 1.8 fold.

What about the “Muscle Mass” value [3] of the same molecule?
The value was 0.73 g.

And the “Fat Mass” value [3]?
The value was 0.88 g.

And the Cataract incidence [3]?
The Cataract incidence was 62%.

What about the viability at 1.1 µM [4, 9] of the same molecule?
Its viability at 1.1 µM is 105%.

And the viability at 10 µM [4, 9]?
Its viability at 10 µM is 81.7%.

What about the viability at 30 µM [4, 9] of the same molecule?
Its viability at 30 µM is 51.2%.

What about the viability at 90 µM [4, 9] of the same molecule?
Its viability at 90 µM is 3.4%.

And the “amount of SASP, p16, SA-β-gal, lipofuscin” value (“amount of SASP, p16” below) [5]?
Its value is “reduced”.

And the “symptoms of geriatric depression and anxiety” value (shortened to “symptoms”) [5]?
The value was “improved”.

And the viability at 1.1 µM [6, 10]?
Its viability at 1.1 µM is 102%.

And the viability at 10 µM [6, 10]?
The viability at 10 µM was 94.1%.

What about the viability at 30 µM [6, 10] of the same molecule?
The viability at 30 µM was 62.8%.

And the viability at 90 µM [6, 10]?
The viability at 90 µM was 4.9%.

And the “Lung p16 mRNA” value [7]?
The value was 76 (±4.6) %.

What about the “Col1a1 mRNA” value [7] of the same molecule?
Its value is 58 (±3.5) %.

For Dazdotuftide [LX-9601], which “Survival (%)” value ([4]; 1.1 μM) is on record?
Its value is 92.2%.

And the “Survival (%)” value ([4]; 10 μM)?
Its value is 69.1%.

What about the “Survival (%)” value ([4]; 30 μM) of the same molecule?
Its value is 15.0%.

And the “Survival (%)” value ([4]; […])?
The value was 89.0%.

And the HMGN1 [8]?
The HMGN1 was 209%.

And the “Survival (%)” value ([6]; 1.1 μM)?
The value was 96.9%.

What about the “Survival (%)” value ([6]; 10 μM) of the same molecule?
Its value is 78.8%.

And the “Survival (%)” value ([6]; 30 μM)?
Its value is 30.2%.

And the “Survival (%)” value ([6]; […])?
Its value is 89.8%.

How did the “Survival (%)” value ([4]; 1.1 μM) turn out when Alirocumab [LX-9562] was run?
The value was 94.1%.

And the “Survival (%)” value ([4]; 10 μM)?
Its value is 51.8%.

What about the “Survival (%)” value ([4]; 30 μM) of the same molecule?
Its value is 2.1%.

And the “Survival (%)” value ([4]; […])?
The value was 89.1%.

And the HMGN1 [8]?
Its HMGN1 is 269%.

And the “Survival (%)” value ([6]; 1.1 μM)?
Its value is 97.0%.

What about the “Survival (%)” value ([6]; 10 μM) of the same molecule?
The value was 45.4%.

And the “Survival (%)” value ([6]; 30 μM)?
Its value is 14.0%.

What about the “Survival (%)” value ([6]; […]) of the same molecule?
The value was 97.3%.

For `Cc1nc(C(=O)NCC(=O)O)c(O)c2ccc(Oc3ccccc3)cc12` [LX-6806, Roxadustat], which geriatric depression [2] is on record?
The geriatric depression was “similarly improving geriatric depression”.

And the viability at 1.1 µM [4, 9]?
The viability at 1.1 µM was 106%.

What about the viability at 10 µM [4, 9] of the same molecule?
Its viability at 10 µM is 67.2%.

What about the viability at 30 µM [4, 9] of the same molecule?
The viability at 30 µM was 23.5%.

What about the “amount of SASP, p16” value [5] of the same molecule?
The value was “reduced”.

And the “symptoms” value [5]?
Its value is “improved”.

What about the viability at 1.1 µM [6, 10] of the same molecule?
Its viability at 1.1 µM is 95.4%.

What about the viability at 10 µM [6, 10] of the same molecule?
The viability at 10 µM was 61.2%.

What about the viability at 30 µM [6, 10] of the same molecule?
Its viability at 30 µM is 32.8%.

Which “Liver p16 mRNA” value [1] does the source give for `CN(C)c1cccc(-c2c3c(=O)n(-c4ccccc4Cl)[nH]c3cc(=O)n2C)c1` [LX-9744, Setanaxib] here?
Its value is 71 (±3.1) %.

And the “Col1a1 mRNA” value [1]?
Its value is 48 (±3.5) %.

What about the geriatric depression [2] of the same molecule?
Its geriatric depression is “similarly improving geriatric depression”.

And the “Femur Ctsk mRNA” value [3]?
Its value is 57%.

What about the “Heart Sur2a mRNA” value [3] of the same molecule?
The value was 2.3 fold.

What about the “Joint Col2a1 mRNA” value [3] of the same molecule?
The value was 2.4 fold.

What about the “Kidney Agtr1a mRNA” value [3] of the same molecule?
Its value is 65%.

What about the “Liver IL6 mRNA” value [3] of the same molecule?
The value was 58%.

What about the “Liver MMP3 mRNA” value [3] of the same molecule?
The value was 49%.

And the “Liver p16 mRNA” value [3]?
Its value is 75%.

And the “Open Field Test Time in Center” value [3]?
Its value is 171%.

And the “Skin Col1a1 mRNA” value [3]?
The value was 2.3 Fold.

What about the “Skin SDF1 mRNA” value [3] of the same molecule?
The value was 1.7 fold.

What about the “Muscle Mass” value [3] of the same molecule?
The value was 0.69 g.

What about the “Fat Mass” value [3] of the same molecule?
The value was 0.84 g.

And the Cataract incidence [3]?
Its Cataract incidence is 78%.

What about the viability at 1.1 µM [4, 9] of the same molecule?
The viability at 1.1 µM was 91.8%.

What about the viability at 10 µM [4, 9] of the same molecule?
Its viability at 10 µM is 73.5%.

What about the viability at 30 µM [4, 9] of the same molecule?
The viability at 30 µM was 25.8%.

And the “amount of SASP, p16” value [5]?
Its value is “reduced”.

What about the “symptoms” value [5] of the same molecule?
Its value is “improved”.

What about the viability at 1.1 µM [6, 10] of the same molecule?
The viability at 1.1 µM was 101%.

And the viability at 10 µM [6, 10]?
Its viability at 10 µM is 69.8%.

And the viability at 30 µM [6, 10]?
The viability at 30 µM was 22.3%.

And the “Lung p16 mRNA” value [7]?
The value was 73 (±3.1) %.

And the “Col1a1 mRNA” value [7]?
The value was 64 (±3.3) %.

B1: Evolocumab (antibody, chains of the INN, looked up, V domains shown)
VH: EVQLVQSGAEVKKPGASVKVSCKASGYTLTSYGISWVRQAPGQGLEWMGWVSFYNGNTNYAQKLQGRGTMTTDPSTSTAYMELRSLRSDDTAVYYCARGYGMDVWGQGTTVTVSS
VL: ESALTQPASVSGSPGQSITISCTGTSSDVGGYNSVSWYQQHPGKAPKLMIYEVSNRPSGVSNRFSGSKSGNTASLTISGLQAEDEADYYCNSYTSTSMVFGGGTKLTVL
notes: CAS 1256937-27-5
What does the source list for B1?
Survival (%) ([4]; 1.1 μM): 97.5%; Survival (%) ([4]; 10 μM): 43.2%; Survival (%) ([4]; 30 μM): 5.3%; HMGN1 [8]: 291%; Survival (%) ([6]; 1.1 μM): 93.9%; Survival (%) ([6]; 10 μM): 58.2%; Survival (%) ([6]; 30 μM): 18.5%; Survival (%) ([6]; […]): 87.6%
